One series concerns HCT116/54C tumours. In words: Tumour radiosensitisation: ex vivo clonogenic assay. Format: in vivo, NIH-III mice.
The test system of a further series is UT-SCC-74B tumours. Described as above. Type of series: in vivo, NIH-III mice.
Series [1] deals with HCT116/54C tumour xenografts. In words: Tumour growth inhibition in combination with radiation. Format: in vivo, NIH-III mice. The note with it: HCT116/54C tumours. On the procedure: (§1) Specific pathogen-free six- to eight-week-old female NIH-III mice, bred in the Vernon Jansen Unit, University of Auckland, were used for animal experiments. Animals had ad libitum access to food and water and were maintained in microisolator cages on a 12 h light/dark cycle. All treatments were administered by i.v. injection at a dose of 2.2 mmol/kg and injection volume of 10 mL/kg. Compounds 2, 34 and 38 were administered as solutions in saline containing 1% DMSO or for 9–12 as solutions in saline containing 2 molar equivalents of NaHCO3. Control animals received an i.v. injection of saline at 10 mL/kg. All animal experiments were conducted under the auspices of the University of Auckland Animal Ethics Committee (approval 1781).
(§2) Compounds were evaluated for their ability to inhibit tumour growth in combination with a single dose of radiation (10 Gy) in HCT116/54C or UT-SCC-74B tumour xenografts on the backs of NIH-III mice. In addition, a fractionated radiation schedule (5 Gy on Days 1, 7 and 14) was explored in HCT116/54C tumour xenografts. Mice were randomly assigned to 4 treatment groups and treated with: (A) vehicle control, (B) 10 Gy RAD only, (C) sensitiser only, or (D) sensitiser given 10 min before 10 Gy RAD. Drugs were administered by i.v. injection at 2.2 mmol/kg either as a single dose or three doses on Days 1, 7 and 14 in the fractionated study. Treatment commenced when the average tumour size reached approximately 250 mm^3, and tumour size was measured until study endpoint. Mice were placed in a custom-built lead-shielded jig that allowed irradiation of the whole tumour but shielded the mouse from radiation. Survival analysis represented the time taken for tumours to increase in relative tumour volume by 4× from the start of treatment (RTV^4). The significance of differences in activity between the groups was assessed by log-rank with Holm–Sidak multiple comparison analysis.

The test system of series [2] is UT-SCC-74B tumour xenografts. Described as above. Type of series: in vivo, NIH-III mice. As to conditions: UT-SCC-74B tumours, single dose 2.2 mmol/kg i.v. As for the experimental part: as §1, §2
For the next series, the system named is HCT116/54C cells. In words: In vitro cytotoxicity, 4 h exposure oxic/anoxic, 5-day regrowth, sulforhodamine B. Format: cell-based, human. The note with it: for IC50: Homo sapiens, 4 h exposure, mean ± SEM, n = 3–4.
The test system of another series is UT-SCC-74B cells. The series is described as above. Format: cell-based, human. The note with it: for IC50: Homo sapiens, 4 h exposure, mean ± SEM.
A further series has as its system FaDu cells. The series is described as above. Format: cell-based. As to conditions: for IC50: Homo sapiens, 4 h exposure, mean ± SEM.
Series [3] in a line: Tolerability at maximum achievable dose, i.v. Format: in vivo. As to conditions: i.v. injection, NIH-III mice.
Text: The most promising 2-nitroimidazole 34 and 5-nitroimidazole 38 compounds were selected for in vivo evaluation on the basis of solubility, in vitro cytotoxicity and radiosensitisation data. These compounds were both well tolerated by i.v. injection in NIH-III mice at their maximum achievable dose (MAD) of 2.2 mmol/kg. This MAD was also achieved for some of our earlier compounds, but only when we employed a phosphate prodrug strategy owing to their poor solubility. […] The Cmax and AUC exceeded that achieved for earlier phosphate prodrugs 9–12, but was less than 2. On this basis we advanced both morpholine analogues into in vivo radiosensitisation studies.
as §1

The mark [4] stands for this setting: 2.2 mmol/kg i.v. 5 min prior to 10 Gy radiation, surviving fraction after radiation/surviving fraction after drug + radiation.
The mark [5] stands for this setting: 2.2 mmol/kg i.v. + 10 Gy, one-way ANOVA.
Where [6] appears, read: 2.2 mmol/kg i.v., 10 Gy, mechanism experiment (Figure 3).
Setting [7] is: drug alone 2.2 mmol/kg i.v., relative to untreated tumours.
Setting [8] is: anoxic, n = 3–4, read-out: IC50 Anoxic.
Setting [9] is: oxic, n = 3–4, read-out: IC50 Oxic.

These results are taken from paper PMC10254852, “Design, Synthesis and Anticancer Evaluation of Nitroimidazole Radiosensitisers” (Molecules, 2023).

Like-named read-outs stand apart in the source and are kept apart here.

Turning to `O=[N+]([O-])c1nccn1CS(=O)(=O)NCCN1CCOCC1` [Compound 34], the figures for the “Sensitisation Ratio” value with HCT116/54C tumours (setting [4]) and in the series on UT-SCC-74B tumours (setting [4]) were 14.9 and 13.8, respectively. Further, in the series on HCT116/54C tumours (setting [5]), the “enhancement of tumour killing of radiotherapy (RAD vs drug + RAD)” value is listed as “significantly enhanced the tumour killing of radiotherapy”. For the same compound, the “SR, drug given 5 min before radiation” value in the series with HCT116/54C tumours (setting [6]) was determined as 9.76. Moreover, the “SR, drug given 20 min after radiation” value with HCT116/54C tumours (setting [6]) stood at 1.49. The results for the “single agent cell kill” value in the series with HCT116/54C tumours (setting [7]) and in the series on UT-SCC-74B tumours (setting [7]) were 62.3 ± 7.9% and 68.4 ± 1.2%, respectively. Moreover, the “enhancement of tumour cell killing by radiotherapy (RAD vs drug + RAD)” value with UT-SCC-74B tumours (setting [5]) is reported as “significantly enhanced tumour cell killing by radiotherapy”. Moreover, the “survival (time to RTV^4) vs radiation alone” value in series [1] (fractionated radiation, p < 0.05) is listed as “significantly increased survival compared to radiation alone”. For the same compound, the “tumour growth delay with fractionated radiation” value in series [1] (qw × 3, 5 Gy, 2.2 mmol/kg i.v.) is on record as “delayed tumour growth relative to radiation alone”. For the same compound, the “tumour growth inhibition with single dose 10 Gy radiation” value in series [1] (single dose 2.2 mmol/kg i.v.) and in series [2] was “able to sensitise 10 Gy radiation to a similar level observed with 2” each time. Further, the HCR was 38.8 in the series with HCT116/54C cells (HCT116/54C, IC50(oxic)/IC50(anoxic)); 24.5 in the series with UT-SCC-74B cells (IC50(oxic)/IC50(anoxic)); 23.3 in the series on FaDu cells (IC50(oxic)/IC50(anoxic)). The IC50 (usually the concentration needed to halve the response being measured) turned out to be 170 ± 10 µM in the series on HCT116/54C cells (HCT116/54C, anoxic, read-out: IC50 Anoxic); 6400 ± 1000 µM in the series on HCT116/54C cells (HCT116/54C, oxic, read-out: IC50 Oxic); 510 ± 80 µM in the series with UT-SCC-74B cells (setting [8]); 12600 ± 1800 µM in the series on UT-SCC-74B cells (setting [9]); 160 ± 10 µM in the series with FaDu cells (setting [8]); 3700 ± 100 µM in the series with FaDu cells (setting [9]). Also, the “HCR values in vitro” value with HCT116/54C cells (range across the cell line panel) is on record as 23–38. The “maximum achievable dose (MAD), well tolerated” value in series [3] stood at 2.2 mmol/kg.
